Measurements taken from ChEMBL document CHEMBL3763009, “Discovery of antiviral molecules for dengue: In silico search and biological evaluation” (Eur J Med Chem, 2016).
Activity calls are given as the source filed them. The rule behind the calls is not given here.

Tests used:
[1] = tested on: dengue virus type 2; experiment: Antiviral activity against Dengue virus 2 infected in human HepG2 cells assessed as reduction in NS1 level at 100 uM administered 1 hr postinfection measured after 72 hrs by sandwich ELISA relative to control; format: functional, organism-based
[2] = tested on: HepG2; experiment: Cytotoxicity against human HepG2 cells assessed as reduction in cell viability up to 100 uM after 72 hrs by MTT assay; format: cell-based; details: hepg2, 72 h
[3] = tested on: dengue virus type 2; experiment: (§1) Inhibition of Dengue virus 2 recombinant 6xHis-tagged NS2B/NS3 serine protease using Boc-Gly-Arg-Arg-AMC as substrate measured for 60 mins by fluorimetric analysis
[4] = as §1; design: species or system dengue virus type 2
[5] = tested on: HepG2; experiment: Cytotoxicity against human HepG2 cells assessed as reduction in cell viability up to 12.5 uM after 72 hrs by MTT assay; format: cell-based; details: hepg2, 72 h
[6] = tested on: dengue virus type 2; experiment: Antiviral activity against Dengue virus 2 infected in human HepG2 cells assessed as reduction in NS1 level at 12.5 uM administered 1 hr postinfection measured after 72 hrs by sandwich ELISA relative to control; format: functional, organism-based
[7] = Cytotoxicity against human HepG2 cells assessed as cell viability after 72 hrs by MTT assay; format: cell-based
[8] = tested on: dengue virus type 2; experiment: Antiviral activity against Dengue virus 2 infected in human HepG2 cells assessed as reduction in NS1 level at 9.8 uM administered 1 hr postinfection measured after 72 hrs by sandwich ELISA relative to control; format: functional; design: scale not given: the % may be the effect or the level left
[9] = tested on: dengue virus type 2; experiment: Antiviral activity against Dengue virus 2 infected in human HepG2 cells assessed as reduction in NS1 level after 72 hrs by sandwich ELISA; format: functional, organism-based; details: HepG2, 72 h
[10] = tested on: dengue virus type 2; experiment: Antiviral activity against Dengue virus 2 infected in human HepG2 cells assessed as reduction in NS1 level at 19.5 uM after 72 hrs by sandwich ELISA relative to control; format: functional; design: scale not given: the % may be the effect or the level left
[11] = Selectivity index, ratio of CC50 for human HepG2 cells to IC50 for Dengue virus 2 infected in human HepG2 cells; format: functional
[12] = tested on: dengue virus type 2; experiment: Antiviral activity against Dengue virus 2 infected in human HepG2 cells assessed as reduction in NS1 level at 13.5 uM administered 1 hr postinfection measured after 72 hrs by sandwich ELISA relative to control; format: functional; design: scale not given: the % may be the effect or the level left
[13] = tested on: dengue virus type 2; experiment: Antiviral activity against Dengue virus 2 infected in human HepG2 cells assessed as reduction in NS1 level at 49.2 uM administered 1 hr postinfection measured after 72 hrs by sandwich ELISA relative to control; format: functional; design: scale not given: the % may be the effect or the level left
[14] = tested on: dengue virus type 2; experiment: Antiviral activity against Dengue virus 2 infected in human HepG2 cells assessed as reduction in NS1 level at 85.7 uM administered 1 hr postinfection measured after 72 hrs by sandwich ELISA relative to control; format: functional; design: scale not given: the % may be the effect or the level left
[15] = tested on: dengue virus type 2; experiment: Antiviral activity against Dengue virus 2 infected in human HepG2 cells assessed as NS1 level at < maximum non-toxic concentration after 72 hrs by sandwich ELISA (reference value: 44.5 +/- 3.2 PbU); format: functional

Cc1ccc2nc(-c3ccc(NC(=O)c4c(O)c5c(n(Cc6ccco6)c4=O)CCCC5)cc3)sc2c1
Activity [1]: inactive | Activity [2]: Non-toxic | inhibition [3]: Dose-dependent effect | IC50 [4]: 608 µM

O=c1oc2ccccc2c(O)c1C1c2ccccc2Oc2c1c(=O)oc1ccccc21 (centres undefined)
Activity [5]: Non-toxic | Activity [6]: inactive | inhibition [3]: Dose-dependent effect | IC50 [4]: 18.9 µM

CC1(C)CC(=O)C2=C(C1)c1c(ccc3ccccc13)NC2c1ccc(-c2ccc(O)c(C(=O)O)c2)o1 (centres undefined)
CC50 at 72 h [7]: 58.6 µM | Activity [8]: 15.5% | IC50 [9]: 14.9 µM | Activity [10]: 69.8% | Ratio CC50/IC50 [11]: 3.9 | inhibition [3]: Dose-dependent effect | IC50 [4]: 17.5 µM

COc1ccc(C(c2c(O)c3ccccc3oc2=O)c2c(O)c3ccccc3oc2=O)cc1CSc1nc2ccccc2s1
CC50 at 72 h [7]: 42.1 µM | IC50 [9]: 11.8 µM | Ratio CC50/IC50 [11]: 3.6 | Activity [12]: 73.9% | inhibition [3]: Dose-dependent effect | IC50 [4]: 9.09 µM

COc1ccc(C(c2c(O)c3ccccc3oc2=O)c2c(O)c3ccccc3oc2=O)cc1COc1ccc(NC(C)=O)cc1
CC50 at 72 h [7]: 162 µM | Activity [13]: 37% | IC50 [9]: 61.5 µM | Activity [14]: 79.9% | Ratio CC50/IC50 [11]: 2.6 | inhibition [3]: Dose-dependent effect | IC50 [4]: 19.9 µM

NC(=O)c1ncn([C@@H]2O[C@H](CO)[C@@H](O)[C@H]2O)n1 [RIBAVIRIN]
Activity [15]: 8.3 PbU
